Here are results for 2 molecules from paper PMC3527569, “Anti-Inflammatory and Vasoprotective Activity of a Retroviral-Derived Peptide, Homologous to Human Endogenous Retroviruses: Endothelial Cell Effects” (PLoS ONE, 2012).

Assay [1] relates to HUVEC. As to the kind of experiment: [125I]-MN20054 binding/uptake by HUVEC. The arrangement: species or system human. The settings on record: 100-fold excess unlabeled peptide, 60 min; for inhibition of association of [125I]-MN20054 with HUVEC: 37°C, triplicate wells (Figure 6C). The method, then: For binding/uptake studies on endothelial cell, HUVEC were grown to confluence in 12-well tissue culture plates. Forty pmol of [^125I]-MN20054 (∼20 Ci/mmol) in PBS with 0.5% BSA, pH 7.5, was added in a volume of 1.0 ml in the presence or absence of a 100-fold excess of the indicated competitor. The plates were allowed to incubate for 1 h at 37°C on a rocking platform and the wells were aspirated and washed 3X with 2.0 ml of ice-cold PBS/BSA. One ml of 1.0 N NaOH was added to each well for 30 min at RT to solubilize the cells and then 0.9 ml was removed from each well and counted in a gamma scintillation spectrophotometer.

The next assay relates to Chemotaxis. As to the kind of experiment: Monocyte and neutrophil chemotaxis to FMLP (micro-chemotaxis chamber). The format is cell-based, human. The settings on record: cells pre-incubated 60 min at 37°C with peptide (10 nM-100 µM), FMLP 10^-8 or 10^-9 M, 90 min, triplicate. The procedure:
Monocyte and Neutrophil Chemotaxis: For monocyte chemotaxis, PBMC were prepared as described above but washed and resuspended to 2 x 10^6/ml in HBSS (10 mM HEPES, 0.5% BSA [low-endotoxin; Sigma, St. Louis, MO], pH 7.0). The percentage of monocytes in the cell preparation was determined by myeloperoxidase staining of fixed, cytospin-prepared slides and usually ranged between 15-25%. For neutrophil chemotaxis, neutrophils were prepared as described above and routinely contained 97-99% neutrophils. Effects of test materials on chemotaxis were measured using 48-well micro-chemotaxis chambers (Neuro-Probe; Cabin John, MD). Briefly, to 450 µL of cell suspension in a polypropylene centrifuge tube was added 50 µL of buffer or test material. Each sample was tested in triplicate. The tubes were then incubated for 60 min at 37°C in a shaking water bath. […] The stained filters were mounted on slides and the number of cells migrating though the filters determined under 600X magnification for 5 fields/well. Inhibition of chemotaxis was determined using that slide for which the positive control (untreated cells; either 10^-8 or 10^-9 M FMLP) gave the strongest response and was calculated in the following manner: […]

For the next assay, the system named is TNF-α. In words: LPS-induced TNF-α release by human PBMC (sandwich ELISA). The settings on record: human PBMC + LPS (S. typhosa), 18-24 h, 37°C, peptide 10 nM-100 µM in triplicate, IC50 estimated from graph, representative set, one volunteer. The format is cell-based. The procedure:
(§1) Cytokine Assays: One-hundred µL of PBMC (2 x 10^6/ml in Complete Medium) were added to each well of a flat-bottom, 96-well tissue culture plate. To each well was then added 50 µL of media or peptide (4X desired final concentration; in Complete Medium) and 50 µL of lipopolysaccharide (LPS; S. typhosa; Sigma, St. Louis, MO; 400 ng/ml Complete Medium). Each peptide was tested in triplicate at 5 log10 concentrations ranging from 100 µM to 10 nM. Plates were incubate 18-24 h at 37°C in 5% humidified CO2. Plates were then centrifuged and 100 µL of supernatant removed from each well and stored frozen at -80°C until assayed. Cytokines (TNF-α, IL-1β, IL-6, GM-CSF) were measured by sandwich ELISA assays (R & D Systems; Minneapolis, MN) using the manufacturer’s instructions. The released cytokine concentration was determined from a standard curve using recombinant cytokine provided with each kit.

The test system of the next assay is IL-1β. In words: LPS-induced IL-1β release by human PBMC (sandwich ELISA). The format is cell-based. The settings on record: 18-24 h, peptide 10 nM-100 µM in triplicate, IC50 estimated from graph. The procedure:
as §1

In assay [2] the test system is HUVEC. In words: Staurosporine-induced apoptosis in HUVEC (Cell Death Detection ELISA). The format is cell-based, human. As to conditions: for protection against staurosporine-induced apoptosis: 50 µM peptide 3 h before staurosporine (500 nM), measured 18 h after staurosporine (Figure 11B). The procedure:
Apoptosis was measured in HUVEC using the Cell Death Detection ELISA^PLUS kit (Roche Diagnostics; Indianapolis, IN) according to the manufacturer's instructions. This assay is based on a quantitative sandwich-enzyme-immunoassay using mouse monoclonal antibodies directed against both DNA and histones, respectively. It allows the specific determination of mono- and oligonucleosomes in the cytoplasmic fraction of cell lysates (apoptosis) and in the supernatant of dying cells (necrosis). The apoptotic index (AI) was calculated as
where treatment refers to use of a known apoptosis- or necrosis-inducing agent (staurosporine, TNF-α).

The subject of the next assay is PAF. As to the kind of experiment: Zymosan-induced PAF release by adherent human PBMC. It counts as cell-based. The settings on record: 1 h peptide then Zymosan 90 min, IC50 estimated from graph. The procedure:
(§2) Platelet Activating Factor (PAF) and Leukotriene B4 (LTB4) Assays: PBMC were prepared as described above and adjusted to 3.3 x 10^6 cells/ml in RPMI-1640 medium containing 5 mg/ml HSA (Sigma, St. Louis, MO). To each well of a 48-well tissue culture plate was added 0.3 ml of cell suspension. The plate was incubated for 2 h at 37°C and 5% CO2 to allow cells to adhere. The wells were then washed 3X with HHBSS (Hank’s Balanced Salt Solution with 5 mg/ml HSA) at room temperature (RT). One-hundred seventy-five µL of HHBSS or test material in HHBSS was then added to each well and the plates incubated for 1 h at 37°C and 5% CO2. Samples were set up in quadruplicate. To each of duplicate wells for each sample was then added 175 µL of HHBSS or HHBSS containing 600 µg/ml of Zymosan (Sigma, St. Louis, MO). The plates were then incubated for 90 min at 37°C and 5% CO2. The plates were centrifuged and supernatants removed for quantitation of PAF or LTB4 according to the kit manufacturer’s (Amersham Pharmacia; Piscataway, NJ) instructions. The released PAF or LTB4 concentration was determined from a standard curve using standards provided with each kit.

For a further assay, the system named is LTB4. As to the kind of experiment: Zymosan-induced LTB4 release by adherent human PBMC. The format is cell-based. As to conditions: 1 h peptide then Zymosan 90 min, IC50 estimated from graph. The procedure:
as §2

Where a SMILES comes first, the peptide text is derived from it. Bridges are numbered along the chain shown (N, C = ends). Roman numbers before positions name the chains, in order.

On to “H-LGGEKLFLLDGRNQLC-OH (disulfide (positions not given here)) [MN20050]”, for which the “inhibition of association of [125I]-MN20054 with HUVEC” value in the assay on HUVEC [1] is listed as “no significant inhibition”. Also, the IC50 in the assay with Chemotaxis, with TNF-α, in the assay on IL-1β, with PAF and in the assay on LTB4 was greater than 100 µM each time. Further, the “protection against staurosporine-induced apoptosis” value with HUVEC [2] is listed as “no protective effective”.
As to `CC(C)C[C@H](NC(=O)CNC(=O)CNC(=O)[C@H](CCC(=O)O)NC(=O)[C@H](CCCCN)NC(=O)[C@H](CC(C)C)NC(=O)[C@H](Cc1ccccc1)NC(=O)[C@H](CC(C)C)NC(=O)[C@H](CC(C)C)NC(=O)[C@H](CC(=O)O)NC(=O)[C@H](CC(C)C)NC(=O)CNC(=O)[C@H](CCCNC(=N)N)NC(=O)[C@H](CCCNC(=N)N)NC(=O)[C@H](CC(N)=O)NC(=O)[C@H](CCC(N)=O)NC(=O)[C@@H](N)CC(C)C)C(=O)N[C@@H](CSSC[C@H](NC(=O)[C@H](CC(C)C)NC(=O)CNC(=O)CNC(=O)[C@H](CCC(=O)O)NC(=O)[C@H](CCCCN)NC(=O)[C@H](CC(C)C)NC(=O)[C@H](Cc1ccccc1)NC(=O)[C@H](CC(C)C)NC(=O)[C@H](CC(C)C)NC(=O)[C@H](CC(=O)O)NC(=O)[C@H](CC(C)C)NC(=O)CNC(=O)[C@H](CCCNC(=N)N)NC(=O)[C@H](CCCNC(=N)N)NC(=O)[C@H](CC(N)=O)NC(=O)[C@H](CCC(N)=O)NC(=O)[C@@H](N)CC(C)C)C(=O)O)C(=O)O` [MN10021] (I: H-LQNRRGLDLLFLKEGGLC-OH / II: H-LQNRRGLDLLFLKEGGLC-OH; disulfide I:18-II:18), the “inhibition of binding/uptake of [125I]-MN20054 by HUVEC” value in the assay with HUVEC [1] (37°C (Figure 7)) was roughly 75%. In addition, the “inhibition of association of [125I]-MN20054 with HUVEC” value with HUVEC [1] was found to be 77%. Besides, the IC50 was 0.25 µM in the assay with Chemotaxis; 6.2 µM in the assay on TNF-α; 17 µM in the assay with IL-1β; 12.5 µM in the assay on PAF; 6.2 µM in the assay on LTB4. In addition, the “protection against staurosporine-induced apoptosis” value in the assay with HUVEC [2] is reported as “significant protection”. The “effect of L-NAME pretreatment on protective effect against staurosporine-induced apoptosis” value with HUVEC [2] (2 mM L-NAME 5 h, then 50 µM peptide 3 h, staurosporine 500 nM ON (Figure 12)) was “no effect”. In the assay on HUVEC [2] (peptide added 3 h before staurosporine, up to 50 µM peptide, quadruplicate wells (Figure 10A, 10C)), the “maximal protection against staurosporine-induced apoptosis” value is recorded as roughly 60%.

The IC50 is the concentration at which inhibition is half-maximal.
